Measurements from patent publication EP4424307A1, “PROTECTIVE AGENT FOR USE IN PERITONEAL DIALYSIS” (Zytoprotec GmbH, priority 2023, dated 2024).
Peptide text beside a SMILES is read from it.

Legend:
[1] = test system: clinical markers of liver injury; assay: Secondary analysis of phase II crossover trial of Alanyl-Glutamine supplementation to PDF, liver tests; format: in vivo, human; settings: patients on chronic PD, n=41, crossover
From the text: To further investigate the effect of Alanyl-Glutamine supplementation to PDF in human PD-induced hepatic (dys)function, the inventors conducted a secondary analysis of a prospective, multicenter, double-blinded, controlled, randomized, dual-period, 2-treatment, crossover, phase II, proof-of-concept study including eight Austrian centers for Alanyl-Glutamine supplementation to the PDF in patients on chronic PD.
This study cohort and its baseline characteristics have already been previously described by Vychytil et al (8).

[2] = test system: LPS-induced acute liver injury; settings: mice; cited from earlier work
systemic inflammation = settings: addition to PDF in PD patients; tendency for hs-CRP and IL-6, statistical significance with IL-8; cited from earlier work
[3] = test system: acute-phase-response- and inflammation-associated proteins within the liver; assay: Murine chronic PD exposure model, mass spectrometry proteomics analysis of liver; format: in vivo, mice; settings: liver of uremic animals receiving PD; of 57 proteins dysregulated by PD; p<0.05
From the text: (§1) The inventors conducted a murine PD exposure experiment resembling chronic PD in healthy and uremic mice: The experiment consisted of n=34 animals in six distinct groups.
(§2) The animals were split in the following groups: • 1) Healthy control animals ("control") • 2) Healthy animals receiving PD treatment (via an indwelling catheter) ("PD") • 3) Healthy animals receiving PD treatment (via an indwelling catheter) supplemented with Alanyl-Glutamine ("PD+AG") • 4) Uremic animals ("uremic") • 5) Uremic animals receiving PD treatment (via an indwelling catheter) ("uremic PD") • 6) Uremic animals receiving PD treatment (via an indwelling catheter) supplemented with Alanyl-Glutamine ("uremic PD+AG")
(§3) All animals of the uremic groups (Groups 4, 5, and 6) were subjected to left-sided 2/3 nephrectomy at day 0 of the study, and to complete right-sided nephrectomy at day 7 of the study, thereby inducing chronic kidney disease.
(§4) All animals receiving PD treatment (Groups 2, 3, 5, and 6) had their indwelling catheter implanted at day 7 of the study.
Animals in groups 2,3, 5, and 6 received daily PDF (Dianeal PD4 3.86% [Baxter, Deerfield, IL, USA]) injections via their indwelling catheter starting from day 14 over the course of six weeks, thereby inducing chronic PDF exposure. […]

[4] = test system: hepatic reperfusion-injury; settings: rat model; cited from earlier work
[5] = test system: steatohepatitis and fibrosis; settings: murine NAFLD model; cited from earlier work
[6] = test system: PD induced hepatic inflammatory response; assay: Murine chronic PD exposure model, liver histology (NAS, Oil Red O, Sirius Red); format: in vivo; settings: uremic mice with PD, PDF supplemented with Alanyl-Glutamine 8 mM
From the text: as §1, §2, §3, §4
Animals in groups 2,3, 5, and 6 received daily PDF (Dianeal PD4 3.86% [Baxter, Deerfield, IL, USA]) injections via their indwelling catheter starting from day 14 over the course of six weeks, thereby inducing chronic PDF exposure.
For animals of groups 3 and 6 the daily PDF injections were supplemented with Alanyl-Glutamine (8 mM) over the course of six weeks.
At sacrifice (day 56 of the study), animal livers were subjected to histologic analysis.
NAFLD activity score (NAS) assessment was conducted as previously described (47) on hematoxylin & eosin (H&E) stained hepatic tissue on one facial field image per mouse.
Steatosis hepatis was assessed by semi-quantitative measurement of Oil Red O stained hepatic tissue with one facial field image per mouse.
Fibrosis hepatis was assessed by semi-quantitative measurement of Sirius Red stained hepatic tissue with one facial field image per mouse.

[7] = log10 transformed due to skewness
[8] = H&E liver sections, daily over six weeks, vs uremic PD

Compound: C[C@H](N)C(=O)N[C@@H](CCC(N)=O)C(=O)O [Alanyl-Glutamine, L-alanyl-L-glutamine] (H-Ala-Gln-OH)
- GGT, Least squares mean (95% CI) [1, 7]: 1.41 (1.37 to 1.46) U/L
- GOT/AST, Least squares mean (95% CI) [1, 7]: 1.23 (1.19 to 1.27) U/L
- GPT/ALT, Least squares mean (95% CI) [1, 7]: 1.20 (1.15 to 1.25) U/L
- LDH, Least squares mean (95% CI) [1, 7]: 2.30 (2.27 to 2.32) U/L
- LDH, Difference Alanyl-Glutamine-placebo, estimate ± SE ([1]; log10 transformed, p value 0.0206): -0.03 ± 0.01 U/L
- GPT/ALT, Difference Alanyl-Glutamine-placebo, estimate ± SE ([1]; log10 transformed, p value 0.0466): -0.06 ± 0.03 U/L
- GOT/AST, Difference Alanyl-Glutamine-placebo, estimate ± SE ([1]; log10 transformed, p value 0.1877): -0.04 ± 0.03 U/L
- GGT, Difference Alanyl-Glutamine-placebo, estimate ± SE ([1]; log10 transformed, p value 0.4901): -0.02 ± 0.02 U/L
- LPS-induced acute liver injury [2]: protect mice against LPS-induced acute liver injury
- systemic inflammation (hs-CRP, IL-6, IL-8) (systemic inflammation): attenuate systemic inflammation
- number of acute-phase-response- and inflammation-associated proteins with significantly altered abundance [3]: 11
- hepatic reperfusion-injury [4]: reduce hepatic reperfusion-injury
- steatohepatitis and fibrosis [5]: significantly attenuate steatohepatitis and fibrosis
- areas of hepatocyte ballooning [6, 8]: decreased
- numbers of inflammatory immune cell infiltrates [6, 8]: markedly decreased
- PD induced fibrosis (% area of Sirius Red stained tissue) ([6]; liver sections): trends of improvement
- PD induced steatosis (% area of Oil Red O stained tissue) ([6]; liver sections): trends of improvement
- NAFLD activity score (NAS) ([6]; daily over six weeks, vs uremic PD, Mann Whitney U test): significantly (p<0.05) decreased
